What was measured:
Assay type in all cases: functional
MDA-MB-468 = assay: Growth inhibition of human MDA-MB-468 cells after 48 hrs by sulforhodamine B assay; details: MDA-MB-468, 48 h
Paracentrotus lividus [1] = assay: Microtubule destabilizing activity in sea urchin free-swimming blastula assessed as embryo spinning treated at 9 to 10 hrs post-fertilization measured after 0.15 to 15 hrs
KM12 = assay: Growth inhibition of human KM12 cells after 48 hrs by sulforhodamine B assay; details: KM12, 48 h
[2] = Growth inhibition of human RXF393 cells after 48 hrs by sulforhodamine B assay; details: RXF 393, 48 h
MOLT-4 = assay: Growth inhibition of human MOLT4 cells after 48 hrs by sulforhodamine B assay; details: MOLT-4, 48 h
SF-295 = assay: Growth inhibition of human SF295 cells after 48 hrs by sulforhodamine B assay; details: SF-295, 48 h
[3] = Growth inhibition of human SF539 cells after 48 hrs by sulforhodamine B assay; details: SF-539, 48 h
COLO 205 = assay: Growth inhibition of human COLO205 cells after 48 hrs by sulforhodamine B assay; details: COLO 205, 48 h
OVCAR-8 = assay: Growth inhibition of human OVCAR8 cells after 48 hrs by sulforhodamine B assay; details: OVCAR-8, 48 h
Paracentrotus lividus [4] = assay: Antimitotic activity in sea urchin fertilized egg assessed as cleavage arrest treated at 8 to 20 mins post-fertilization measured at 2.5 to 5.5 hrs post-fertilization
SF-268 = assay: Growth inhibition of human SF268 cells after 48 hrs by sulforhodamine B assay; details: SF-268, 48 h
SNB-19 = assay: Growth inhibition of human SNB19 cells after 48 hrs by sulforhodamine B assay; details: SNB-19, 48 h
BT-549 = assay: Growth inhibition of human BT549 cells after 48 hrs by sulforhodamine B assay; details: BT-549, 48 h
U-251 = assay: Growth inhibition of human U251 cells after 48 hrs by sulforhodamine B assay; details: U-251, 48 h
SK-MEL-2 = assay: Growth inhibition of human SK-MEL-2 cells after 48 hrs by sulforhodamine B assay; details: SK-MEL-2, 48 h
SK-MEL-28 = assay: Growth inhibition of human SK-MEL-28 cells after 48 hrs by sulforhodamine B assay; details: SK-MEL-28, 48 h
786-0 = assay: Growth inhibition of human 786-0 cells after 48 hrs by sulforhodamine B assay; details: 786-0, 48 h
NCI-H23 = assay: Growth inhibition of human NCI-H23 cells after 48 hrs by sulforhodamine B assay; details: NCI-H23, 48 h
HT-29 = assay: Growth inhibition of human HT-29 cells after 48 hrs by sulforhodamine B assay; details: HT-29, 48 h
[5] = Growth inhibition of human NCI-ADR-RES cells after 48 hrs by sulforhodamine B assay
HCT-116 = assay: Growth inhibition of human HCT116 cells after 48 hrs by sulforhodamine B assay; details: HCT-116, 48 h
PC-3 = assay: Growth inhibition of human PC3 cells after 48 hrs by sulforhodamine B assay; details: PC-3, 48 h
DU-145 = assay: Growth inhibition of human DU145 cells after 48 hrs by sulforhodamine B assay; details: DU-145, 48 h
NCI-H460 = assay: Growth inhibition of human NCI-H460 cells after 48 hrs by sulforhodamine B assay; details: NCI-H460, 48 h
[6] = Growth inhibition of human EKVX cells after 48 hrs by sulforhodamine B assay
RPMI-8226 = assay: Growth inhibition of human RPMI8226 cells after 48 hrs by sulforhodamine B assay; details: RPMI-8226, 48 h
MDA-MB-435 = assay: Growth inhibition of human MDA-MB-435 cells after 48 hrs by sulforhodamine B assay; details: MDA-MB-435, 48 h
T47D = assay: Growth inhibition of human T47D cells after 48 hrs by sulforhodamine B assay
NCI-H226 = assay: Growth inhibition of human NCI-H226 cells after 48 hrs by sulforhodamine B assay; details: NCI-H226, 48 h
[7] = Growth inhibition of human HCC2998 cells after 48 hrs by sulforhodamine B assay; details: HCC 2998, 48 h
NCI-H522 = assay: Growth inhibition of human NCI-H522 cells after 48 hrs by sulforhodamine B assay; details: NCI-H522, 48 h
IGROV-1 = assay: Growth inhibition of human IGROV1 cells after 48 hrs by sulforhodamine B assay; details: IGROV-1, 48 h
HOP-62 = assay: Growth inhibition of human HOP62 cells after 48 hrs by sulforhodamine B assay; details: HOP-62, 48 h
CCRF-CEM = assay: Growth inhibition of human CCRF-CEM cells after 48 hrs by sulforhodamine B assay
MCF7 = assay: Growth inhibition of human MCF7 cells after 48 hrs by sulforhodamine B assay; details: MCF7, 48 h
LOX IMVI = assay: Growth inhibition of human LOXIMVI cells after 48 hrs by sulforhodamine B assay
OVCAR-3 = assay: Growth inhibition of human OVCAR3 cells after 48 hrs by sulforhodamine B assay; details: OVCAR-3, 48 h
HL-60(TB) = assay: Growth inhibition of human HL-60(TB) cells after 48 hrs by sulforhodamine B assay; details: HL-60, 48 h
A498 = assay: Growth inhibition of human A498 cells after 48 hrs by sulforhodamine B assay; details: A498, 48 h
UACC-62 = assay: Growth inhibition of human UACC62 cells after 48 hrs by sulforhodamine B assay; details: UACC-62, 48 h
Paracentrotus lividus [8] = assay: Antimitotic activity in sea urchin fertilized egg assessed as cleavage alteration treated at 8 to 20 mins post-fertilization measured at 2.5 to 5.5 hrs post-fertilization
SW-620 = assay: Growth inhibition of human SW620 cells after 48 hrs by sulforhodamine B assay; details: SW-620, 48 h
SK-MEL-5 = assay: Growth inhibition of human SK-MEL-5 cells after 48 hrs by sulforhodamine B assay; details: SK-MEL-5, 48 h
K562 = assay: Growth inhibition of human K562 cells after 48 hrs by sulforhodamine B assay; details: K562, 48 h
[9] = Growth inhibition of human OVCAR4 cells after 48 hrs by sulforhodamine B assay; details: OVCAR-4, 48 h
A549 = assay: Growth inhibition of human A549/ATCC cells after 48 hrs by sulforhodamine B assay; details: A549, 48 h
SN12C = assay: Growth inhibition of human SN12C cells after 48 hrs by sulforhodamine B assay
SK-OV-3 = assay: Growth inhibition of human SKOV3 cells after 48 hrs by sulforhodamine B assay; details: SK-OV-3, 48 h
[10] = Growth inhibition of human Hs 578T cells after 48 hrs by sulforhodamine B assay
SR = assay: Growth inhibition of human SR cells after 48 hrs by sulforhodamine B assay
M14 = assay: Growth inhibition of human M14 cells after 48 hrs by sulforhodamine B assay; details: M14, 48 h
HCT-15 = assay: Growth inhibition of human HCT15 cells after 48 hrs by sulforhodamine B assay; details: HCT-15, 48 h
SNB-75 = assay: Growth inhibition of human SNB75 cells after 48 hrs by sulforhodamine B assay; details: SNB-75, 48 h
MDA-MB-231 = assay: Growth inhibition of human MDA-MB-231 cells after 48 hrs by sulforhodamine B assay; details: MDA-MB-231, 48 h
[11] = Growth inhibition of human UO31 cells after 48 hrs by sulforhodamine B assay; details: UO-31, 48 h
[12] = Growth inhibition of human OVCAR5 cells after 48 hrs by sulforhodamine B assay; details: OVCAR-5, 48 h
CAKI-1 = assay: Growth inhibition of human CAKI-1 cells after 48 hrs by sulforhodamine B assay; details: CAKI-1, 48 h
TK-10 = assay: Growth inhibition of human TK10 cells after 48 hrs by sulforhodamine B assay; details: TK-10, 48 h
[13] = Growth inhibition of human UACC257 cells after 48 hrs by sulforhodamine B assay; details: UACC-257, 48 h
Malme-3M = assay: Growth inhibition of human MALME-3M cells after 48 hrs by sulforhodamine B assay
ACHN = assay: Growth inhibition of human ACHN cells after 48 hrs by sulforhodamine B assay
NCI-H322M = assay: Growth inhibition of human NCI-H322M cells after 48 hrs by sulforhodamine B assay

Work on `COc1ccc(-c2c(-c3cc(OC)c4c(c3)OCO4)noc2N)cc1` yielded a GI50 (MDA-MB-468) of 18.7 nM, an EC (Paracentrotus lividus [1]) of 0.05 µM and a GI50 (KM12) of 18.1 nM. The GI50 [2] was 22.3 nM, the GI50 (MOLT-4) was 71.4 nM and the GI50 (SF-295) was 22.8 nM. It also gave a GI50 [3] of 38.1 nM, a GI50 (COLO 205) of 34.1 nM and a GI50 (OVCAR-8) of 58.5 nM. It also gave an EC (Paracentrotus lividus [4]) of 0.002 µM, a GI50 (SF-268) of 148 nM and a GI50 (SNB-19) of 65.8 nM. The GI50 (BT-549) was 3920 nM, the GI50 (U-251) was 30.8 nM and the GI50 (SK-MEL-2) was 25.9 nM. It also gave a GI50 (SK-MEL-28) of 13.6 nM, a GI50 (786-0) of 73.5 nM and a GI50 (NCI-H23) of 37.8 nM. For the same compound, the GI50 (HT-29) was 34.6 nM, the GI50 [5] was 19.1 nM and the GI50 (HCT-116) was 46.3 nM. It also gave a GI50 (PC-3) of 44 nM, a GI50 (DU-145) of 47.2 nM and a GI50 (NCI-H460) of 35.2 nM. The GI50 [6] was 10700 nM, the GI50 (RPMI-8226) was 49.9 nM and the GI50 (MDA-MB-435) was less than 10 nM. It also gave a GI50 (T47D) of 39.4 nM, a GI50 (NCI-H226) of 121 nM and a GI50 [7] of 118 nM. It also gave a GI50 (NCI-H522) of less than 10 nM, a GI50 (IGROV-1) of 99.7 nM and a GI50 (HOP-62) of 30.2 nM. The GI50 (CCRF-CEM) was 36.3 nM, the GI50 (MCF7) was 31.5 nM and the GI50 (LOX IMVI) was 57.9 nM. It also gave a GI50 (OVCAR-3) of 21.9 nM, a GI50 (HL-60(TB)) of 35.1 nM and a GI50 (A498) of 22 nM. The GI50 (UACC-62) was 59.7 nM, the EC (Paracentrotus lividus [8]) was 0.0005 µM and the GI50 (SW-620) was 29.4 nM. The GI50 (SK-MEL-5) was 29.8 nM, the GI50 (K562) was 19.3 nM and the GI50 [9] was 114 nM. For the same compound, the GI50 (A549) was 59.6 nM, the GI50 (SN12C) was 217 nM and the GI50 (SK-OV-3) was 31.8 nM. For the same compound, the GI50 [10] was 32.4 nM, the GI50 (SR) was less than 10 nM and the GI50 (M14) was 32.3 nM. It also gave a GI50 (HCT-15) of 48.2 nM, a GI50 (SNB-75) of 33.9 nM and a GI50 (MDA-MB-231) of 124 nM. The GI50 [11] was 82.2 nM.

For `COc1ccc(-c2noc(N)c2-c2cc(OC)c3c(c2)OCO3)cc1`, the GI50 (MDA-MB-468) was 9660 nM, the EC (Paracentrotus lividus [1]) was greater than 5 µM and the GI50 (KM12) was 1580 nM. For the same compound, the GI50 [2] was 2360 nM, the GI50 (MOLT-4) was 1280 nM and the GI50 (SF-295) was 2800 nM. It also gave a GI50 [3] of 1690 nM, a GI50 (COLO 205) of 1850 nM and a GI50 (OVCAR-8) of 3620 nM. It also gave an EC (Paracentrotus lividus [4]) of 2 µM, a GI50 (SF-268) of 5000 nM and a GI50 (SNB-19) of 20400 nM. For the same compound, the GI50 (BT-549) was 3400 nM, the GI50 (SK-MEL-28) was 6790 nM and the GI50 (786-0) was 5460 nM. It also gave a GI50 (NCI-H23) of 2820 nM, a GI50 (HT-29) of 1330 nM and a GI50 [12] of 5010 nM. For the same compound, the GI50 (CAKI-1) was 2780 nM, the GI50 [5] was 563 nM and the GI50 (HCT-116) was 2440 nM. For the same compound, the GI50 (PC-3) was 3290 nM, the GI50 (DU-145) was 3110 nM and the GI50 (NCI-H460) was 2870 nM. For the same compound, the GI50 (TK-10) was 6360 nM, the GI50 (RPMI-8226) was 2910 nM and the GI50 [13] was 6680 nM. The GI50 (MDA-MB-435) was 237 nM, the GI50 (T47D) was 2750 nM and the GI50 (NCI-H226) was 13700 nM. It also gave a GI50 [7] of 1960 nM, a GI50 (NCI-H522) of 1020 nM and a GI50 (IGROV-1) of 4860 nM. It also gave a GI50 (HOP-62) of 2850 nM, a GI50 (CCRF-CEM) of 1020 nM and a GI50 (MCF7) of 798 nM. For the same compound, the GI50 (OVCAR-3) was 2630 nM, the GI50 (HL-60(TB)) was 1290 nM and the GI50 (A498) was 1310 nM. The GI50 (UACC-62) was 5100 nM, the EC (Paracentrotus lividus [8]) was 0.2 µM and the GI50 (SW-620) was 726 nM. It also gave a GI50 (SK-MEL-5) of 3360 nM, a GI50 (Malme-3M) of 9660 nM and a GI50 (K562) of 404 nM. It also gave a GI50 (ACHN) of 6210 nM, a GI50 [9] of 22800 nM and a GI50 (A549) of 2730 nM. The GI50 (SN12C) was 4100 nM, the GI50 (SK-OV-3) was 3410 nM and the GI50 (NCI-H322M) was 6660 nM. The GI50 [10] was 2810 nM, the GI50 (SR) was 454 nM and the GI50 (M14) was 1300 nM. The GI50 (HCT-15) was 620 nM, the GI50 (SNB-75) was 1810 nM and the GI50 (MDA-MB-231) was 2350 nM. For the same compound, the GI50 [11] was 5900 nM.

From ChEMBL document CHEMBL3112491, “3-(5-)-Amino-o-diarylisoxazoles: regioselective synthesis and antitubulin activity” (2014)
